≈ marks a conversion by molar mass, not a printed value.
What was measured:
Type in all cases: cell-based
[1] = tested on: Mycobacterium tuberculosis; assay: MIC, series dilution test, Jenssen egg medium; settings: 37°C, read-out: minimum inhibitory concentration
Procedure: The compounds of Examples 12 and 13 show minimum inhibitory concentrations of 32 γ/ml of nutrient medium in the series dilution test, Jenssen egg medium, 37°C, against Mycobacterium tuberculosis.

Pseudomonas aeruginosa B [2] = assay: MIC, plate test (Table 1); settings: 37°C, 24 hours, read-out: Minimum inhibitory concentration (MIC)
Procedure: (§1) The minimum inhibitory concentration (MIC) was determined in the plate test on a complete nutrient base of the following composition: 10 g of proteose-peptone, 10 g of veal infusion, 2 g of dextrose, 3 g of sodium chloride, 2 g of disodium phosphate, 1 g of sodium acetate, 0.01 g of adenine sulphate, 0.01 g of guanine hydrochloride, 0.01 g of uracil, 0.01 g. of xantin, 12 g of agar-agar and 1 liter of water.
(§2) The incubation temperature was 37°C and the incubation time was 24 hours.

Klebsiella 63 = assay: MIC, plate test (Table 1); settings: 37°C, 24 hours, read-out: Minimum inhibitory concentration (MIC)
Procedure: as §1, §2

Escherichia coli A261 = assay: MIC, plate test (Table 1); settings: 37°C, 24 hours, read-out: Minimum inhibitory concentration (MIC)
Procedure: as §1, §2

Proteus vulgaris 1017 [3] = assay: MIC, plate test (Table 1); settings: 37°C, 24 hours, read-out: Minimum inhibitory concentration (MIC)
Procedure: as §1, §2

Escherichia coli C165 = assay: MIC, plate test (Table 1); settings: 37°C, 24 hours, read-out: Minimum inhibitory concentration (MIC)
Procedure: as §1, §2

Streptococcus pyogenes = assay: MIC, plate test (Table 1); settings: with serum, 37°C, 24 hours, read-out: Minimum inhibitory concentration (MIC)
Procedure: as §1, §2

[4] = tested on: Staphylococcus aureus 133; assay: MIC, plate test (Table 1); settings: 37°C, 24 hours, read-out: Minimum inhibitory concentration (MIC)
Procedure: as §1, §2

Klebsiella 8085 = assay: MIC, plate test (Table 1); settings: 37°C, 24 hours, read-out: Minimum inhibitory concentration (MIC)
Procedure: as §1, §2

Salmonella species [5] = assay: MIC, plate test (Table 1); settings: 37°C, 24 hours, read-out: Minimum inhibitory concentration (MIC)
Procedure: as §1, §2

Pseudomonas aeruginosa w [6] = assay: MIC, plate test (Table 1); settings: 37°C, 24 hours, read-out: Minimum inhibitory concentration (MIC)
Procedure: as §1, §2

Clostridium botulinium = tested on: Clostridium botulinium
[7] = tested on: Diplococcus pneumoniae species; assay: Turbidity test in Mueller-Hinton nutrient solution; settings: 100 γ/ml, 24 hours, 37°C
Pseudomonas aeruginosa w [8] = assay: Turbidity test in Mueller-Hinton nutrient solution; settings: 100 γ/ml, 24 hours, 37°C
[9] = tested on: Haemophilus influenzae 281; assay: Turbidity test in Mueller-Hinton nutrient solution; settings: 100 γ/ml, 24 hours, 37°C
[10] = tested on: Staphylococcus aureus 133; assay: Turbidity test in Mueller-Hinton nutrient solution; settings: 100 γ/ml, 24 hours, 37°C
Serratia species = assay: Turbidity test in Mueller-Hinton nutrient solution; settings: 100 γ/ml, 24 hours, 37°C
Clostridium tetani = settings: 100 γ/ml, 24 hours, 37°C
Shigella species = assay: Turbidity test in Mueller-Hinton nutrient solution; settings: 100 γ/ml, 24 hours, 37°C
Procedure: (§3) 100 γ/ml of the compounds according to the invention are dissolved in Mueller-Hinton nutrient solution, with addition of 0.1% of glucose. The nutrient solution contains […] microbes per ml. The mixture is incubated in glass test tubes for 24 hours at 37°C and after this time the degree of turbidity is determined.

Salmonella species [11] = assay: Turbidity test in Mueller-Hinton nutrient solution; settings: 100 γ/ml, 24 hours, 37°C
Procedure: as §3

[12] = tested on: Bordetella bronchiseptica; assay: Turbidity test in Mueller-Hinton nutrient solution; settings: 100 γ/ml, 24 hours, 37°C
Pseudomonas aeruginosa B [13] = assay: Turbidity test in Mueller-Hinton nutrient solution; settings: 100 γ/ml, 24 hours, 37°C
Proteus vulgaris 1017 [14] = assay: Turbidity test in Mueller-Hinton nutrient solution; settings: 100 γ/ml, 24 hours, 37°C
Escherichia coli 14 = assay: Turbidity test in Mueller-Hinton nutrient solution; settings: 100 γ/ml, 24 hours, 37°C
[15] = tested on: Neisseria catarrhalis species; assay: Turbidity test in Mueller-Hinton nutrient solution; settings: 100 γ/ml, 24 hours, 37°C
Brucella species = settings: 100 γ/ml, 24 hours, 37°C
Escherichia coli C 165 = assay: Turbidity test in Mueller-Hinton nutrient solution; settings: 100 γ/ml, 24 hours, 37°C
Klebsiella K 63 = assay: Turbidity test in Mueller-Hinton nutrient solution; settings: 100 γ/ml, 24 hours, 37°C
[16] = tested on: Corynebacterium diphtheriae gravis; assay: Turbidity test in Mueller-Hinton nutrient solution; settings: 100 γ/ml, 24 hours, 37°C
[17] = tested on: Proteus indole-positive, species; assay: Turbidity test in Mueller-Hinton nutrient solution; settings: 100 γ/ml, 24 hours, 37°C
Escherichia coli A 261 = assay: Turbidity test in Mueller-Hinton nutrient solution; settings: 100 γ/ml, 24 hours, 37°C
Borrelia species = assay: Turbidity test in Mueller-Hinton nutrient solution; settings: 100 γ/ml, 24 hours, 37°C
Bacteroides species = assay: Turbidity test in Mueller-Hinton nutrient solution; settings: 100 γ/ml, 24 hours, 37°C
Enterobacter species = assay: Turbidity test in Mueller-Hinton nutrient solution; settings: 100 γ/ml, 24 hours, 37°C
Klebsiella K 10 = assay: Turbidity test in Mueller-Hinton nutrient solution; settings: 100 γ/ml, 24 hours, 37°C
[18] = tested on: Proteus indole-negative, species; assay: Turbidity test in Mueller-Hinton nutrient solution; settings: 100 γ/ml, 24 hours, 37°C
[19] = tested on: Aeromonas hydrophila species; assay: Turbidity test in Mueller-Hinton nutrient solution; settings: 100 γ/ml, 24 hours, 37°C
Streptococcus pyogenes W = assay: Turbidity test in Mueller-Hinton nutrient solution; settings: 100 γ/ml, 24 hours, 37°C
Lactobacillus species = assay: Turbidity test in Mueller-Hinton nutrient solution; settings: 100 γ/ml, 24 hours, 37°C
Enterococcus species = assay: Turbidity test in Mueller-Hinton nutrient solution; settings: 100 γ/ml, 24 hours, 37°C
[20] = tested on: Pasteurella pseudotuberculosis; settings: 100 γ/ml, 24 hours, 37°C
[21] = tested on: Corynebacterium pyogenes M; assay: Turbidity test in Mueller-Hinton nutrient solution; settings: 100 γ/ml, 24 hours, 37°C

CCCCCCCCCCCCCCCCCC(=O)Nc1n[n+]([O-])c2ccccc2[n+]1[O-] [Example 6]
MIC [1]: 32 µg/mL (≈ 72 µM) | MIC (Pseudomonas aeruginosa B [2]): 128 µg/mL (≈ 288 µM) | MIC (Klebsiella 63): 128 µg/mL (≈ 288 µM) | MIC (Escherichia coli A261): 128 µg/mL (≈ 288 µM) | MIC (Proteus vulgaris 1017 [3]): 128 µg/mL (≈ 288 µM) | MIC (Escherichia coli C165): 128 µg/mL (≈ 288 µM) | MIC (Streptococcus pyogenes): 128 µg/mL (≈ 288 µM) | MIC [4]: 128 µg/mL (≈ 288 µM) | MIC (Klebsiella 8085): 8 µg/mL (≈ 18 µM) | MIC (Salmonella species [5]): 128 µg/mL (≈ 288 µM) | MIC (Pseudomonas aeruginosa w [6]): 128 µg/mL (≈ 288 µM)

CNC(=O)Nc1n[n+]([O-])c2ccccc2[n+]1[O-] [Example 7, 1'-methyl-3'-[1,4-dioxo-benzo-1,2,4-triazin-3-yl]-urea]
MIC (Pseudomonas aeruginosa B [2]): 128 µg/mL (≈ 544 µM) | MIC (Klebsiella 63): 8 µg/mL (≈ 34 µM) | MIC (Escherichia coli A261): 4 µg/mL (≈ 17 µM) | MIC (Proteus vulgaris 1017 [3]): 1 µg/mL (≈ 4.25 µM) | MIC (Escherichia coli C165): 4 µg/mL (≈ 17 µM) | MIC (Streptococcus pyogenes): 1 µg/mL (≈ 4.25 µM) | MIC [4]: 1 µg/mL (≈ 4.25 µM) | MIC (Klebsiella 8085): 1 µg/mL (≈ 4.25 µM) | MIC (Salmonella species [5]): 4 µg/mL (≈ 17 µM) | MIC (Pseudomonas aeruginosa w [6]): 128 µg/mL (≈ 544 µM)

CNC(=O)Nc1n[n+]([O-])c2ccccc2[n+]1[O-] [Example 12, 1'-[1,4-dioxo-benzo-1,2,4-triazin-3-yl]-3'-methylurea]
turbidity after incubation (Clostridium botulinium): remained free of turbidity | turbidity after incubation [7]: remained free of turbidity | turbidity after incubation (Pseudomonas aeruginosa w [8]): remained free of turbidity | turbidity after incubation [9]: remained free of turbidity | turbidity after incubation [10]: remained free of turbidity | turbidity after incubation (Serratia species): remained free of turbidity | turbidity after incubation (Clostridium tetani): remained free of turbidity | turbidity after incubation (Shigella species): remained free of turbidity | turbidity after incubation (Salmonella species [11]): remained free of turbidity | turbidity after incubation [12]: remained free of turbidity | turbidity after incubation (Pseudomonas aeruginosa B [13]): remained free of turbidity | turbidity after incubation (Proteus vulgaris 1017 [14]): remained free of turbidity | turbidity after incubation (Escherichia coli 14): remained free of turbidity | MIC [1]: 32 µg/mL (≈ 136 µM) | turbidity after incubation [15]: remained free of turbidity | turbidity after incubation (Brucella species): remained free of turbidity | turbidity after incubation (Escherichia coli C 165): remained free of turbidity | turbidity after incubation (Klebsiella K 63): remained free of turbidity | turbidity after incubation [16]: remained free of turbidity | turbidity after incubation [17]: remained free of turbidity | turbidity after incubation (Escherichia coli A 261): remained free of turbidity | turbidity after incubation (Borrelia species): remained free of turbidity | turbidity after incubation (Bacteroides species): remained free of turbidity | turbidity after incubation (Enterobacter species): remained free of turbidity | turbidity after incubation (Klebsiella K 10): remained free of turbidity | turbidity after incubation [18]: remained free of turbidity | turbidity after incubation [19]: remained free of turbidity | turbidity after incubation (Streptococcus pyogenes W): remained free of turbidity | turbidity after incubation (Lactobacillus species): remained free of turbidity | turbidity after incubation (Enterococcus species): remained free of turbidity | turbidity after incubation [20]: remained free of turbidity | turbidity after incubation [21]: remained free of turbidity

O=C(NCCO)Nc1n[n+]([O-])c2ccccc2[n+]1[O-] [Example 14, 1'-[1,4-dioxo-benzo-1,2,4-triazin-3-yl]-3'-[β-hydroxy-ethyl]-urea]
turbidity after incubation (Clostridium botulinium): remained free of turbidity | turbidity after incubation [7]: remained free of turbidity | turbidity after incubation (Pseudomonas aeruginosa w [8]): remained free of turbidity | turbidity after incubation [9]: remained free of turbidity | turbidity after incubation [10]: remained free of turbidity | turbidity after incubation (Serratia species): remained free of turbidity | turbidity after incubation (Clostridium tetani): remained free of turbidity | turbidity after incubation (Shigella species): remained free of turbidity | turbidity after incubation (Salmonella species [11]): remained free of turbidity | turbidity after incubation [12]: remained free of turbidity | turbidity after incubation (Pseudomonas aeruginosa B [13]): remained free of turbidity | turbidity after incubation (Proteus vulgaris 1017 [14]): remained free of turbidity | turbidity after incubation (Escherichia coli 14): remained free of turbidity | turbidity after incubation [15]: remained free of turbidity | turbidity after incubation (Brucella species): remained free of turbidity | turbidity after incubation (Escherichia coli C 165): remained free of turbidity | turbidity after incubation (Klebsiella K 63): remained free of turbidity | turbidity after incubation [16]: remained free of turbidity | turbidity after incubation [17]: remained free of turbidity | turbidity after incubation (Escherichia coli A 261): remained free of turbidity | turbidity after incubation (Borrelia species): remained free of turbidity | turbidity after incubation (Bacteroides species): remained free of turbidity | turbidity after incubation (Enterobacter species): remained free of turbidity | turbidity after incubation (Klebsiella K 10): remained free of turbidity | turbidity after incubation [18]: remained free of turbidity | turbidity after incubation [19]: remained free of turbidity | turbidity after incubation (Streptococcus pyogenes W): remained free of turbidity | turbidity after incubation (Lactobacillus species): remained free of turbidity | turbidity after incubation (Enterococcus species): remained free of turbidity | turbidity after incubation [20]: remained free of turbidity | turbidity after incubation [21]: remained free of turbidity
